Key:
Type in all cases: cell-based, human
HOP-62 = assay: NCI 60 cell line screen (SRB), Non-Small Cell Lung Cancer
Description: (§1) The operation of this screen utilizes 60 different human tumor cell lines, representing leukemia, melanoma and cancers of the lung, colon, brain, ovary, breast, prostate, and kidney. The aim is to prioritize for further evaluation, synthetic compounds or natural product samples showing selective growth inhibition or cell killing of particular tumor cell lines. This screen is unique in that the complexity of a 60 cell line dose response produced by a given compound results in a biological response pattern which can be utilized in pattern recognition algorithms. Using these algorithms, it is possible to assign a putative mechanism of action to a test compound, or to determine that the response pattern is unique and not similar to that of any of the standard prototype compounds included in the NCl database (see DTP Overview tab). In addition, following characterization of various cellular molecular targets in the 60 cell lines, it may be possible to select compounds most likely to interact with a specific molecular target.
(§2) The human tumor cell lines of the cancer screening panel are grown in RPMI 1640 medium containing 5% fetal bovine serum and 2 mM L-glutamine. For a typical screening experiment, cells are inoculated into 96 well microtiter plates in 100 μL at plating densities ranging from 5,000 to 40,000 cells/well depending on the doubling time of individual cell lines. After cell inoculation, the microtiter plates are incubated at 37° C., 5% CO2, 95% air and 100% relative humidity for 24 h prior to addition of experimental drugs.
(§3) After 24 h, two plates of each cell line are fixed in situ with TCA, to represent a measurement of the cell population for each cell line at the time of drug addition (Tz). Experimental drugs are solubilized in dimethyl sulfoxide at 400-fold the desired final maximum test concentration and stored frozen prior to use. At the time of drug addition, an aliquot of frozen concentrate is thawed and diluted to twice the desired final maximum test concentration with complete medium containing 50 μg/ml gentamicin. Additional four, 10-fold or ½ log serial dilutions are made to provide a total of five drug concentrations plus control. Aliquots of 100 μl of these different drug dilutions are added to the appropriate microtiter wells already containing 100 μl of medium, resulting in the required final drug concentrations.
(§4) Following drug addition, the plates are incubated for an additional 48 h at 37° C., 5% CO2, 95% air, and 100% relative humidity. For adherent cells, the assay is terminated by the addition of cold TCA. Cells are fixed in situ by the gentle addition of 50 μl of cold 50% (w/v) TCA (final concentration, 10% TCA) and incubated for 60 minutes at 4° C. The supernatant is discarded, and the plates are washed five times with tap water and air dried. Sulforhodamine B (SRB) solution (100 μl) at 0.4% (w/v) in 1% acetic acid is added to each well, and plates are incubated for 10 minutes at room temperature. After staining, unbound dye is removed by washing five times with 1% acetic acid and the plates are air dried. Bound stain is subsequently solubilized with 10 mM trizma base, and the absorbance is read on an automated plate reader at a wavelength of 515 nm. For suspension cells, the methodology is the same except that the assay is terminated by fixing settled cells at the bottom of the wells by gently adding 50 μl of 80% TCA (final concentration, 16% TCA). Using the seven absorbance measurements [time zero, (Tz), control growth, (C), and test growth in the presence of drug at the five concentration levels (Ti)], the percentage growth is calculated at each of the drug concentrations levels. Percentage growth inhibition is calculated as: [(Ti−Tz)/(C−Tz)]×100 for concentrations for which Ti>/=Tz [(Ti−Tz)/Tz]×100 for concentrations for which Ti<Tz.
(§5) Three dose response parameters are calculated for each experimental agent. […]

HOP-92 = assay: as above
Description: as §1, §2, §3, §4, §5

EKVX = assay: as above
Description: as §1, §2, §3, §4, §5

NCI-H522 = assay: as above
Description: as §1, §2, §3, §4, §5

A549/ATCC = assay: as above
Description: as §1, §2, §3, §4, §5

NCI-H460 = assay: as above
Description: as §1, §2, §3, §4, §5

CCRF-CEM = assay: NCI 60 cell line screen (SRB), Leukemia
Description: as §1, §2, §3, §4, §5

K-562 = assay: NCI 60 cell line screen (SRB), Leukemia
Description: as §1, §2, §3, §4, §5

HCT-15 = assay: NCI 60 cell line screen (SRB), Colon Cancer
Description: as §1, §2, §3, §4, §5

[1] = read-out: LC50 (the source's name)

For COc1cccc(CCNC(=O)CC(c2ccccc2)(c2ccccc2)c2ccccc2)c1 [Compound Z3], the GI50 (HOP-62; HOP-62) was 59.4 µM, the TGI (HOP-62; HOP-62) was over 1.00E−04 and the “Percent Growth” value (HOP-62; HOP-62, Log10 Concentration −4.0) was 40%. For the same compound, the “Percent Growth” value (HOP-62; HOP-62, Log10 Concentration −5.0) was 83%, the “Percent Growth” value (HOP-62; HOP-62, Log10 Concentration −6.0) was 97% and the “Percent Growth” value (HOP-62; HOP-62, Log10 Concentration −7.0) was 105%. For the same compound, the “Percent Growth” value (HOP-62; HOP-62, Log10 Concentration −8.0) was 92%, the CC50 (HOP-62; HOP-62, read-out: LC50 (the source's name)) was over 100 µM and the GI50 (HOP-92; HOP-92) was over 100 µM. The TGI (HOP-92; HOP-92) was over 1.00E−04, the “Percent Growth” value (HOP-92; HOP-92, Log10 Concentration −4.0) was 68% and the “Percent Growth” value (HOP-92; HOP-92, Log10 Concentration −5.0) was 70%. The “Percent Growth” value (HOP-92; HOP-92, Log10 Concentration −6.0) was 94%, the “Percent Growth” value (HOP-92; HOP-92, Log10 Concentration −7.0) was 94% and the “Percent Growth” value (HOP-92; HOP-92, Log10 Concentration −8.0) was 99%. The CC50 (HOP-92; HOP-92, read-out: LC50 (the source's name)) was over 100 µM, the GI50 (EKVX) was 22.7 µM and the TGI (EKVX) was over 1.00E−04. The “Percent Growth” value (EKVX; Log10 Concentration −4.0) was 29%, the “Percent Growth” value (EKVX; Log10 Concentration −5.0) was 62% and the “Percent Growth” value (EKVX; Log10 Concentration −6.0) was 109%. For the same compound, the “Percent Growth” value (EKVX; Log10 Concentration −7.0) was 121%, the “Percent Growth” value (EKVX; Log10 Concentration −8.0) was 108% and the CC50 (EKVX; [1]) was over 100 µM. The TGI (NCI-H522; NCI-H522) was 8.45E−05, the “Percent Growth” value (NCI-H522; NCI-H522, Log10 Concentration −4.0) was −1% and the “Percent Growth” value (NCI-H522; NCI-H522, Log10 Concentration −5.0) was 12%. The “Percent Growth” value (NCI-H522; NCI-H522, Log10 Concentration −6.0) was 58%, the “Percent Growth” value (NCI-H522; NCI-H522, Log10 Concentration −7.0) was 46% and the “Percent Growth” value (NCI-H522; NCI-H522, Log10 Concentration −8.0) was 67%. The CC50 (NCI-H522; NCI-H522, read-out: LC50 (the source's name)) was over 100 µM, the GI50 (A549/ATCC) was 4.11 µM and the TGI (A549/ATCC) was 9.65E−05. For the same compound, the “Percent Growth” value (A549/ATCC; Log10 Concentration −5.0) was 25%, the “Percent Growth” value (A549/ATCC; Log10 Concentration −6.0) was 89% and the “Percent Growth” value (A549/ATCC; Log10 Concentration −7.0) was 94%. The “Percent Growth” value (A549/ATCC; Log10 Concentration −8.0) was 102%, the CC50 (A549/ATCC; [1]) was over 100 µM and the GI50 (NCI-H460; NCI-H460) was 10.5 µM. The TGI (NCI-H460; NCI-H460) was over 1.00E−04, the “Percent Growth” value (NCI-H460; NCI-H460, Log10 Concentration −4.0) was 18% and the “Percent Growth” value (NCI-H460; NCI-H460, Log10 Concentration −5.0) was 51%. For the same compound, the “Percent Growth” value (NCI-H460; NCI-H460, Log10 Concentration −6.0) was 90%, the “Percent Growth” value (NCI-H460; NCI-H460, Log10 Concentration −7.0) was 117% and the “Percent Growth” value (NCI-H460; NCI-H460, Log10 Concentration −8.0) was 97%. The CC50 (NCI-H460; NCI-H460, read-out: LC50 (the source's name)) was over 100 µM, the GI50 (CCRF-CEM) was 8.16 µM and the TGI (CCRF-CEM) was over 1.00E−04. For the same compound, the “Percent Growth” value (CCRF-CEM; Log10 Concentration −4.0) was 34%, the “Percent Growth” value (CCRF-CEM; Log10 Concentration −5.0) was 48% and the “Percent Growth” value (CCRF-CEM; Log10 Concentration −6.0) was 74%. For the same compound, the “Percent Growth” value (CCRF-CEM; Log10 Concentration −7.0) was 94%, the “Percent Growth” value (CCRF-CEM; Log10 Concentration −8.0) was 62% and the CC50 (CCRF-CEM; [1]) was over 100 µM. For the same compound, the GI50 (K-562; K-562) was 6.03 µM, the TGI (K-562; K-562) was over 1.00E−04 and the “Percent Growth” value (K-562; K-562, Log10 Concentration −4.0) was 32%. For the same compound, the “Percent Growth” value (K-562; K-562, Log10 Concentration −5.0) was 36%, the “Percent Growth” value (K-562; K-562, Log10 Concentration −6.0) was 100% and the “Percent Growth” value (K-562; K-562, Log10 Concentration −7.0) was 100%. The “Percent Growth” value (K-562; K-562, Log10 Concentration −8.0) was 102%, the CC50 (K-562; K-562, read-out: LC50 (the source's name)) was over 100 µM and the GI50 (HCT-15; HCT-15) was over 100 µM. For the same compound, the TGI (HCT-15; HCT-15) was over 1.00E−04, the “Percent Growth” value (HCT-15; HCT-15, Log10 Concentration −4.0) was 57% and the “Percent Growth” value (HCT-15; HCT-15, Log10 Concentration −5.0) was 62%. The “Percent Growth” value (HCT-15; HCT-15, Log10 Concentration −6.0) was 86%, the “Percent Growth” value (HCT-15; HCT-15, Log10 Concentration −7.0) was 99% and the “Percent Growth” value (HCT-15; HCT-15, Log10 Concentration −8.0) was 103%. For the same compound, the CC50 (HCT-15; HCT-15, read-out: LC50 (the source's name)) was over 100 µM.

Source: US7632972B2, “Compounds and methods for treatment of cancer and modulation of programmed cell death for melanoma and other cancer cells” (The Board of Trustees of the University of Illionis, priority 2003, dated 2009)
